# Values of other authors, collected in patent US20240115591A1, “THERAPEUTIC METHODS AND COMPOSITIONS FOR TREATING BILIARY TRACT CANCER USING DEVIMISTAT” (Cornerstone Pharmaceuticals, Inc., priority 2020, published 2024).
# Experiments:
# [1] = tested on: locally advanced or metastatic BTC; details: for OS (overall survival): 410 patients with locally advanced or metastatic BTC, phase III ABC-02
# [2] = ABC-02, patients with advanced BTC
Molecule,OS (overall survival) [1],"objective response rate ([1]; ABC-02, combination arm)","hazard ratio (HR) for OS ([1]; gemcitabine cisplatin arm versus gemcitabine alone arm, 95% CI 0.52 to 0.80, p<0.001)","historical ORR (CR+PR) ([1]; historical estimate from Valle et al. 2010, used as null hypothesis for the planned phase 2)",grade 3 and 4 adverse event: abnormal liver function [2],grade 3 and 4 adverse event: anemia [2],grade 3 and 4 adverse event: deep vein thrombosis [2],grade 3 and 4 adverse event: fatigue [2],grade 3 and 4 adverse event: impaired renal function [2],grade 3 and 4 adverse event: nausea [2],grade 3 and 4 adverse event: neutropenia [2],grade 3 and 4 adverse event: thrombocytopenia [2],grade 3 and 4 adverse event: thromboembolic event [2],grade 3 and 4 adverse event: vomiting [2],grade 3 and 4 adverse event: infection (in vivo)
"Nc1ccn([C@@H]2O[C@H](CO)[C@@H](O)C2(F)F)c(=O)n1 [gemcitabine, 2′-deoxy-2′,2′-difluorocytidine (β-isomer)]",8.1 months,,,,,,,,,,,,,,
gemcitabine cisplatin,11.7 months,26.1%,0.64,25%,16.7%,7.6%,2%,18.7%,1.5%,4%,25.3%,15.7%,3.5%,5.1%,18.2%
